From ChEMBL document CHEMBL4482311, “Modulators of Prostate-Specific G-Protein Receptor (PSGR/OR51E2) and Methods of Using Same” (2018)
Calls of active or inactive are those of the source. The rule behind the calls is not given here.

How the values were obtained:
Type in all cases: cell-based
[1] = target: T1, Olfactory receptor 51E2 (Homo sapiens) (UniProt Q9H255); assay: Agonist activity at PSGR/OR51E2 in human LNCaP cells assessed as induction of change in intracellular metabolites level by measuring ornithine level at 250 uM incubated for 72 hrs by GC/MS analysis
T1 sequence (whole entry): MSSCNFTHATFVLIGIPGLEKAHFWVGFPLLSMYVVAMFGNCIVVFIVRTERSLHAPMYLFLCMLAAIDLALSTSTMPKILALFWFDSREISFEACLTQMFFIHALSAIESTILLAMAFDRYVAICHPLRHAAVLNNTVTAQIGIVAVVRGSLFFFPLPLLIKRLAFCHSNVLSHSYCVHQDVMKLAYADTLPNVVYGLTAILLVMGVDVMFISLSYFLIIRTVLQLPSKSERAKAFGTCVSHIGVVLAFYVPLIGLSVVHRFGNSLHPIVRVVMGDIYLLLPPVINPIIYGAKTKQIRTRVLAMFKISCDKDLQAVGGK

[2] = target: T1, Olfactory receptor 51E2 (Homo sapiens); assay: Agonist activity at PSGR/OR51E2 in human LNCaP cells assessed as induction of change in extracellular metabolites level by measuring glutamine level at 250 uM incubated for 72 hrs by GC/MS analysis
[3] = target: T1, Olfactory receptor 51E2 (Homo sapiens); assay: Agonist activity at PSGR/OR51E2 in human LNCaP cells assessed as induction of change in intracellular metabolites level by measuring inosine level at 250 uM incubated for 72 hrs by GC/MS analysis
[4] = target: T1, Olfactory receptor 51E2 (Homo sapiens); assay: Agonist activity at PSGR/OR51E2 in human LNCaP cells assessed as induction of change in extracellular metabolites level by measuring guanine level at 250 uM incubated for 72 hrs by GC/MS analysis
[5] = target: T1, Olfactory receptor 51E2 (Homo sapiens); assay: Agonist activity at PSGR/OR51E2 in human LNCaP cells assessed as induction of change in intracellular metabolites level by measuring fumaric acid level at 250 uM incubated for 72 hrs by GC/MS analysis
[6] = target: T1, Olfactory receptor 51E2 (Homo sapiens); assay: Agonist activity at PSGR/OR51E2 in human LNCaP cells assessed as induction of change in extracellular metabolites level by measuring xanthine level at 250 uM incubated for 72 hrs by GC/MS analysis
[7] = target: T1, Olfactory receptor 51E2 (Homo sapiens); assay: Agonist activity at PSGR/OR51E2 in human LNCaP cells assessed as induction of change in extracellular metabolites level by measuring glycine level at 250 uM incubated for 72 hrs by GC/MS analysis
[8] = target: T1, Olfactory receptor 51E2 (Homo sapiens); assay: Agonist activity at PSGR/OR51E2 in human LNCaP cells assessed as induction of change in extracellular metabolites level by measuring phenylalanine level at 250 uM incubated for 72 hrs by GC/MS analysis
[9] = target: T1, Olfactory receptor 51E2 (Homo sapiens); assay: Agonist activity at PSGR/OR51E2 in human LNCaP cells assessed as induction of change in extracellular metabolites level by measuring glutaric acid level at 250 uM incubated for 72 hrs by GC/MS analysis
[10] = target: T1, Olfactory receptor 51E2 (Homo sapiens); assay: Agonist activity at PSGR/OR51E2 in human LNCaP cells assessed as induction of change in intracellular metabolites level by measuring threonine level at 250 uM incubated for 72 hrs by GC/MS analysis
[11] = target: T1, Olfactory receptor 51E2 (Homo sapiens); assay: Agonist activity at PSGR/OR51E2 in human LNCaP cells assessed as induction of change in extracellular metabolites level by measuring threose/erythrose level at 250 uM incubated for 72 hrs by GC/MS analysis
[12] = target: T1, Olfactory receptor 51E2 (Homo sapiens); assay: Agonist activity at PSGR/OR51E2 in human LNCaP cells assessed as induction of change in extracellular metabolites level by measuring serine level at 250 uM incubated for 72 hrs by GC/MS analysis
[13] = target: T1, Olfactory receptor 51E2 (Homo sapiens); assay: Agonist activity at PSGR/OR51E2 in human LNCaP cells assessed as induction of change in intracellular metabolites level by measuring O-methylphosphate level at 250 uM incubated for 72 hrs by GC/MS analysis
[14] = target: T1, Olfactory receptor 51E2 (Homo sapiens); assay: Agonist activity at PSGR/OR51E2 in human LNCaP cells assessed as induction of change in intracellular metabolites level by measuring 3-phosphoglyceric acid level at 250 uM incubated for 72 hrs by GC/MS analysis
[15] = target: T1, Olfactory receptor 51E2 (Homo sapiens); assay: Agonist activity at PSGR/OR51E2 in human LNCaP cells assessed as induction of change in intracellular metabolites level by measuring oleic acid level at 250 uM incubated for 72 hrs by GC/MS analysis
[16] = target: T1, Olfactory receptor 51E2 (Homo sapiens); assay: Agonist activity at PSGR/OR51E2 in human LNCaP cells assessed as induction of change in intracellular metabolites level by measuring glucose-6-phosphate level at 250 uM incubated for 72 hrs by GC/MS analysis
[17] = target: T1, Olfactory receptor 51E2 (Homo sapiens); assay: Agonist activity at PSGR/OR51E2 in human LNCaP cells assessed as induction of change in extracellular metabolites level by measuring lactic acid level at 250 uM incubated for 72 hrs by GC/MS analysis
[18] = target: T1, Olfactory receptor 51E2 (Homo sapiens); assay: Agonist activity at PSGR/OR51E2 in human LNCaP cells assessed as induction of change in intracellular metabolites level by measuring spermidine level at 250 uM incubated for 72 hrs by GC/MS analysis
[19] = target: T1, Olfactory receptor 51E2 (Homo sapiens); assay: Agonist activity at PSGR/OR51E2 in human LNCaP cells assessed as induction of change in extracellular metabolites level by measuring tyrosine level at 250 uM incubated for 72 hrs by GC/MS analysis
[20] = target: T1, Olfactory receptor 51E2 (Homo sapiens); assay: Agonist activity at PSGR/OR51E2 in human LNCaP cells assessed as induction of change in intracellular metabolites level by measuring lactic acid level at 250 uM incubated for 72 hrs by GC/MS analysis
[21] = target: T1, Olfactory receptor 51E2 (Homo sapiens); assay: Agonist activity at PSGR/OR51E2 in human LNCaP cells assessed as induction of change in extracellular metabolites level by measuring cystine level at 250 uM incubated for 72 hrs by GC/MS analysis
[22] = target: T1, Olfactory receptor 51E2 (Homo sapiens); assay: Agonist activity at PSGR/OR51E2 in human LNCaP cells assessed as induction of change in extracellular metabolites level by measuring asparagine level at 250 uM incubated for 72 hrs by GC/MS analysis
[23] = target: T1, Olfactory receptor 51E2 (Homo sapiens); assay: Agonist activity at PSGR/OR51E2 in human LNCaP cells assessed as induction of change in intracellular metabolites level by measuring malic acid level at 250 uM incubated for 72 hrs by GC/MS analysis
[24] = target: T1, Olfactory receptor 51E2 (Homo sapiens); assay: Agonist activity at PSGR/OR51E2 in human LNCaP cells assessed as induction of change in intracellular metabolites level by measuring ethanolamine level at 250 uM incubated for 72 hrs by GC/MS analysis
[25] = target: T1, Olfactory receptor 51E2 (Homo sapiens); assay: Agonist activity at PSGR/OR51E2 in human LNCaP cells assessed as induction of change in intracellular metabolites level by measuring serine level at 250 uM incubated for 72 hrs by GC/MS analysis
[26] = target: T1, Olfactory receptor 51E2 (Homo sapiens); assay: Agonist activity at PSGR/OR51E2 in human LNCaP cells assessed as induction of change in extracellular metabolites level by measuring alanine level at 250 uM incubated for 72 hrs by GC/MS analysis
[27] = target: T1, Olfactory receptor 51E2 (Homo sapiens); assay: Agonist activity at PSGR/OR51E2 in human LNCaP cells assessed as induction of change in intracellular metabolites level by measuring pentonic-acids level at 250 uM incubated for 72 hrs by GC/MS analysis
[28] = target: T1, Olfactory receptor 51E2 (Homo sapiens); assay: Agonist activity at PSGR/OR51E2 in human LNCaP cells assessed as induction of change in intracellular metabolites level by measuring beta-alanine level at 250 uM incubated for 72 hrs by GC/MS analysis
[29] = target: T1, Olfactory receptor 51E2 (Homo sapiens); assay: Agonist activity at PSGR/OR51E2 in human LNCaP cells assessed as induction of change in extracellular metabolites level by measuring lysine level at 250 uM incubated for 72 hrs by GC/MS analysis
[30] = target: T1, Olfactory receptor 51E2 (Homo sapiens); assay: Agonist activity at PSGR/OR51E2 in human LNCaP cells assessed as induction of change in extracellular metabolites level by measuring uric acid level at 250 uM incubated for 72 hrs by GC/MS analysis

Activity [1]: Active | Activity [2]: Active | Activity [3]: Active | Activity [4]: Active | Activity [5]: Active | Activity [6]: Active | Activity [7]: Active | Activity [8]: Active | Activity [9]: Active | Activity [10]: Active | Activity [11]: Active | Activity [12]: Active | Activity [13]: Active | Activity [14]: Active | Activity [15]: Active | Activity [16]: Active | Activity [17]: Active | Activity [18]: Active | Activity [19]: Active | Activity [20]: Active | Activity [21]: Active | Activity [22]: Active | Activity [23]: Active | Activity [24]: Active | Activity [25]: Active | Activity [26]: Active | Activity [27]: Active | Activity [28]: Active | Activity [29]: Active | Activity [30]: Active
Structure (SMILES): COc1ccc(NC=O)c(C(=O)CCNC(C)=O)c1
